In brackets after ≈: the same amount, converted by molar mass. Read-outs that look alike come from different tables or passages of the source.
Key:
[1] = system: E. coli strain DH5α; experiment: Minimal inhibitory concentration (MIC) against E. coli, two fold serial dilutions in 2xYT broth; format: cell-based; conditions: Escherichia coli, read-out: MIC (E. coli)
Method: (§1) Where MIC values are quoted for the compounds of the examples, those results were obtained by the method described in the Biological Example.
(§2) Minimal inhibitory concentrations (MIC) of inhibitors against E. coli strain DH5α (Genotype; F-φ80d/acZΔM 15Δ(lacZYA-argF)U 169 deoR recA1 endA1 hsdR17(rk^−, mk^+)phoA supE44λ^−thi-1 gyrA96 re/A1) obtained from GibcoBRL Life Technologies, or Staphylococcus capitis (American Type Culture Collection number 35661) were determined as follows. Stock solutions of each test compound were prepared by dissolution of the compound in dimethylsulfoxide at 10 mM. For the determination of the minimal inhibitory concentration, two fold serial dilutions were prepared in 2×YT broth (typtone 16 g/l, yeast extract 10 g/l, sodium chloride 5 g/l obtained from BIO 101 Inc, 1070 Joshua Way, Vista, Calif. 92083, USA) to yield 0.05 ml compound-containing medium per well. Inocula were prepared from cultures grown overnight in 2×YT broth at 37° C. Cell densities were adjusted to absorbance at 660 nm (a660)=0.1; the optical density-standardised preparations were diluted 1:1000 in 2×YT broth; and each well inoculated with 0.05 ml of the diluted bacteria. Microtiter plates were incubated at 37° C. for 18 hours in a humidified incubator. The MIC (μM) was recorded as the lowest drug concentration that inhibited visible growth.

[2] = system: Staphylococcus capitis (American Type Culture Collection number 35661); experiment: Minimal inhibitory concentration (MIC) against Staphylococcus capitis, two fold serial dilutions in 2xYT broth; format: cell-based; conditions: ATCC35661, Staphylococcus capitis ATCC 35661, 37° C., 18 hours, lowest drug concentration that inhibited visible growth, read-out: MIC (S. capitis)
Method: as §1, §2

[3] = E. coli strain DH5α, 2xYT broth, 37° C., 18 hours, lowest drug concentration that inhibited visible growth

SMILES	MIC [1, 3] [µM]	MIC [2] [µM]	MIC ([1]; 18 h) [µM]
CCCC[C@H](CN(O)C=O)C(=O)N[C@H](C(=O)c1ccc(F)cc1)C(C)(C)C [Example 1, 2(R)-[(N-Formyl-N-hydroxyamino)-methyl]-hexanoic Acid-(1′(S)-(4-fluorobenzoyl)-2′,2′-dimethylpropyl)amide]	12.5 (≈ 4.76 µg/mL)	25 (≈ 9.51 µg/mL)	–
CCCC[C@H](CN(O)C=O)C(=O)N[C@H](C(=O)c1ccc(OC)cc1)C(C)(C)C [Example 2]	12.5 (≈ 4.91 µg/mL)	6.25 (≈ 2.45 µg/mL)	–
CCCC[C@H](CN(O)C=O)C(=O)N[C@H](C(=O)C1CCCCC1)C(C)C [Example 3, 2(R)-[(N-Formyl-N-hydroxyamino)-methyl]-hexanoic Acid-(1′(S)-cyclohexanecarbonyl-2′-methylpropyl)amide]	50 (≈ 17.7 µg/mL)	25 (≈ 8.86 µg/mL)	–
CCCC[C@H](CN(O)C=O)C(=O)N[C@H](C(=O)c1nccn1C)C(C)(C)C [Example 6, 2(R)-[(N-Formyl-N-hydroxyamino)-methyl]-hexanoic Acid-[2,2-dimethyl-1(S)(1-methyl-1H-imidazole-2-carbonyl)-propyl]-amide]	25 (≈ 9.16 µg/mL)	200 (≈ 73.3 µg/mL)	–
CCCC[C@H](CN(O)C=O)C(=O)N[C@H](C(=O)c1ccccn1)C(C)(C)C [Example 7, 2(R)-[(N-Formyl-N-hydroxyamino)-methyl]-hexanoic Acid-[2,2-dimethyl-1(S)-(pyridine-2-carbonyl)-propyl]-amide]	12.5 (≈ 4.54 µg/mL)	50 (≈ 18.2 µg/mL)	–
CCCC[C@H](CN(O)C=O)C(=O)N[C@H](C(=O)c1ccc(OC)cc1OC)C(C)(C)C [Example 11, 2(R)-[(N-Formyl-N-hydroxyamino)-methyl]-hexanoic Acid [1′-(2,4-dimethoxy-benzoyl)-2′,2′-dimethylpropyl]-amide]	25 (≈ 10.6 µg/mL)	25 (≈ 10.6 µg/mL)	–
CCCC[C@H](CN(O)C=O)C(=O)N[C@H](C(=O)c1ccc(O)cc1)C(C)(C)C [Example 12, 2(R)-[(N-Formyl-N-hydroxyamino)-methyl]-hexanoic Acid [1′(S)-(4-hydroxy-benzoyl)-2′,2′-dimethylpropyl]-amide]	6.25 (≈ 2.37 µg/mL)	12 (≈ 4.54 µg/mL)	–
CCCC[C@H](CN(O)C=O)C(=O)N[C@H](C(=O)Cc1ccccn1)C(C)(C)C [Example 15, 2(R)-[(N-Formyl-N-hydroxyamino)-methyl]-hexanoic Acid-(1′(S)-tert-butyl-2′-oxo-3′-pyridin-2-yl-propyl) Amide]	–	100 (≈ 37.7 µg/mL)	–
CCCC[C@H](CN(O)C=O)C(=O)N[C@H](C(=O)c1ccc(S(C)(=O)=O)cc1)C(C)(C)C [Example 16, 2(R)-[(N-Formyl-N-hydroxyamino)-methyl]-hexanoic Acid [1′(S)-(4-methanesulfonyl-benzoyl)-2′,2′-dimethyl-propyl]amide]	6.25 (≈ 2.75 µg/mL)	25 (≈ 11 µg/mL)	–
COc1ccc(C(=O)[C@H](NC(=O)[C@@H](CC2CCCC2)CN(O)C=O)C(C)(C)C)cc1 [Example 17, 3-Cyclopentyl-2(S)-[(N-formyl-N-hydroxyamino)-methyl]-N-[1′(R)-(4-methoxybenzoyl)-2′,2′-dimethylpropyl]propionamide]	100 (≈ 41.9 µg/mL)	25 (≈ 10.5 µg/mL)	–
CCCC[C@H](CN(O)C=O)C(=O)N[C@H](C(=O)c1ccco1)C(C)(C)C [Example 18, 2(R)-[(N-Formyl-N-hydroxyamino)-methyl]-hexanoic Acid-(1′(S)-(furan-2-carbonyl)-2′,2′-dimethylpropyl)amide]	12.5 (≈ 4.41 µg/mL)	12.5 (≈ 4.41 µg/mL)	–
CCCC[C@H](CN(O)C=O)C(=O)N[C@H](C(=O)c1cccn1C)C(C)(C)C [Example 19, 2(R)-[(N-Formyl-N-hydroxyamino)-methyl]-hexanoic Acid-(2′,2′-dimethyl-1′(S)-(1-methyl-1H-pyrrole-2-carbonyl)-propyl)amide]	12.5 (≈ 4.57 µg/mL)	12.5 (≈ 4.57 µg/mL)	–
CCCC[C@H](CN(O)C=O)C(=O)N[C@H](C(=O)c1ccc(N)cc1)C(C)(C)C [Example 20, 2(R)-[(N-Formyl-N-hydroxyamino)-methyl]-hexanoic Acid-(1′(S)-(4-aminobenzoyl)-2′,2′-dimethylpropyl)amide]	6.25 (≈ 2.36 µg/mL)	12.5 (≈ 4.72 µg/mL)	–
CCCC[C@H](CN(O)C=O)C(=O)N[C@H](C(=O)c1ccc(NC(=O)C(F)(F)F)cc1)C(C)(C)C [Example 21, 2(R)-[(N-Formyl-N-hydroxyamino)-methyl]-hexanoic Acid-(2′,2′-dimethyl-1′(S)-[4-(2,2,2-trifluoroacetylamino)-benzoyl]-propyl)amide]	–	6.25 (≈ 2.96 µg/mL)	6.25 (≈ 2.96 µg/mL)
CCCC[C@H](CN(O)C=O)C(=O)N[C@H](C(=O)c1ccc(N2CCNCC2)cc1)C(C)(C)C [Example 26, 2(R)-[(N-Formyl-N-hydroxyamino)-methyl]-hexanoic Acid-(2′,2′-dimethyl-1′(S)-(4-piperazin-1-yl-benzoyl)-propyl)amide]	3.1 (≈ 1.38 µg/mL)	12.5 (≈ 5.58 µg/mL)	–
CCCC[C@H](CN(O)C=O)C(=O)N[C@H](C(=O)c1ccc(N2CCN(C)CC2)cc1)C(C)(C)C [Example 27, 2(R)-[(N-Formyl-N-hydroxyamino)-methyl]-hexanoic Acid-(2′,2′-dimethyl-1′(S)-[4-(4-methylpiperazin-1-yl)benzoyl]-propyl)amide]	6.25 (≈ 2.88 µg/mL)	6.25 (≈ 2.88 µg/mL)	–
CCCC[C@H](CN(O)C=O)C(=O)N[C@H](C(=O)c1ccc(N2CCN(C3=NCCCN3)CC2)cc1)C(C)(C)C [Example 29, 2(R)-[(N-Formyl-N-hydroxyamino)-methyl]-hexanoic Acid-(2′,2′-dimethyl-1′(S)-{4-[4-(1,4,5,6-tetrahydropyrimidin-2-yl)-piperazin-1-yl]-benzoyl}-propyl)amide]	50 (≈ 26.4 µg/mL)	6.25 (≈ 3.3 µg/mL)	–
CCCC[C@H](CN(O)C=O)C(=O)N[C@H](C(=O)c1ccc(N(CCC)CCC)cc1)C(C)(C)C [Example 30, 2(R)-[(N-Formyl-N-hydroxyamino)-methyl]-hexanoic Acid-(1′(S)-(4-dipropylaminobenzoyl)-2′,2′-dimethylpropyl)amide]	100 (≈ 46.2 µg/mL)	3.1 (≈ 1.43 µg/mL)	–

Further lines, with some results ahead:

MIC [1, 3] [µM]	MIC [2] [µM]	SMILES	MIC ([1]; 18 h) [µM]
3.1 (≈ 1.26 µg/mL)	3.1 (≈ 1.26 µg/mL)	CC(C)(C)[C@H](NC(=O)[C@H](CC1CCCC1)CN(O)C=O)C(=O)c1ccc(F)cc1 [Example 4, 3-Cyclopentyl-2(R)-[(N-formyl-N-hydroxyamino)-methyl]-N-[1′(S)-(4-fluorobenzoyl)-2′,2′-dimethylpropyl]propionamide]	–
3.1 (≈ 1.3 µg/mL)	1.6 (≈ 0.67 µg/mL)	COc1ccc(C(=O)[C@@H](NC(=O)[C@H](CC2CCCC2)CN(O)C=O)C(C)(C)C)cc1 [Example 5, 3-Cyclopentyl-2(R)-[(N-formyl-N-hydroxyamino)-methyl]-N-[1′(S)-(4-methoxybenzoyl)-2′,2′-dimethylpropyl]propionamide]	–
6.25 (≈ 2.52 µg/mL)	1.6 (≈ 0.644 µg/mL)	CCCC[C@H](CN(O)C=O)C(=O)N[C@H](C(=O)c1cc2ccccc2o1)C(C)(C)C [Example 8, 2(R)-[(N-Formyl-N-hydroxyamino)-methyl]-hexanoic Acid-(1′(S)-(benzofuran-2-carbonyl)-2′,2′-dimethylpropyl)amide]	–
6.25 (≈ 2.68 µg/mL)	0.7 (≈ 0.3 µg/mL)	CC(C)(C)[C@H](NC(=O)[C@H](CC1CCCC1)CN(O)C=O)C(=O)c1cc2ccccc2o1 [Example 9, N-[1(S)-(Benzofuran-2-carbonyl)-2,2-dimethylpropyl]-3′-cyclopentyl-2′(R)-[(N-formyl-N-hydroxyamino)-methyl]-propionamide]	–
12.5 (≈ 5.24 µg/mL)	3.1 (≈ 1.3 µg/mL)	CCCC[C@H](CN(O)C=O)C(=O)N[C@H](C(=O)c1ccc(NC(C)=O)cc1)C(C)(C)C [Example 22, 2(R)-[(N-Formyl-N-hydroxyamino)-methyl]-hexanoic Acid-(1′(S)-(4-acetylaminobenzoyl)-2′,2′-dimethylpropyl)amide]	–
50 (≈ 22.8 µg/mL)	3.1 (≈ 1.41 µg/mL)	CCCC[C@H](CN(O)C=O)C(=O)N[C@H](C(=O)c1ccc(NS(C)(=O)=O)cc1)C(C)(C)C [Example 23, 2(R)-[(N-Formyl-N-hydroxyamino)-methyl]-hexanoic Acid-(1′(S)-(4-methanesulfonylaminobenzoyl)-2′,2′-dimethylpropyl)amide]	–
6.25 (≈ 2.8 µg/mL)	3.1 (≈ 1.39 µg/mL)	CCCC[C@H](CN(O)C=O)C(=O)N[C@H](C(=O)c1ccc(N2CCOCC2)cc1)C(C)(C)C [Example 24, 2(R)-[(N-Formyl-N-hydroxyamino)-methyl]-hexanoic Acid-(2′,2′-dimethyl-1′(S)-(4-morpholin-4-ylbenzoyl)-propyl)amide]	–
50 (≈ 26.8 µg/mL)	3.1 (≈ 1.66 µg/mL)	CCCC[C@H](CN(O)C=O)C(=O)N[C@H](C(=O)c1ccc(N2CCN(Cc3ccccc3)CC2)cc1)C(C)(C)C [Example 25, 2(R)-[(N-Formyl-N-hydroxyamino)-methyl]-hexanoic Acid-(1′(S)-[4-(4-benzylpiperazin-1-yl)-benzoyl]-2′,2′-dimethylpropyl)amide]	–
12.5 (≈ 6.56 µg/mL)	1.6 (≈ 0.839 µg/mL)	CCCC[C@H](CN(O)C=O)C(=O)N[C@H](C(=O)c1ccc(N2CCN(c3ncccn3)CC2)cc1)C(C)(C)C [Example 28, 2(R)-[(N-Formyl-N-hydroxyamino)-methyl]-hexanoic Acid-(2′,2′-dimethyl-1′(S)-[4-(4-pyrimidin-2-yl-piperazin-1-yl)-benzoyl]-propyl)amide]	–
